# Experimental data published in US20150352108A1, “AMINO-PYRIMIDINE COMPOUNDS AS INHIBITORS OF TBK1 AND/OR IKK EPSILON” (Alzheimer's Institute of America, priority 2009, published 2015).
# Target: T1, IKKε (Homo sapiens, UniProt Q14164)
# T1 construct: His-tag; made in house; host or cells: Sf9 insect cells
# T1 sequence (Q14164 1-716): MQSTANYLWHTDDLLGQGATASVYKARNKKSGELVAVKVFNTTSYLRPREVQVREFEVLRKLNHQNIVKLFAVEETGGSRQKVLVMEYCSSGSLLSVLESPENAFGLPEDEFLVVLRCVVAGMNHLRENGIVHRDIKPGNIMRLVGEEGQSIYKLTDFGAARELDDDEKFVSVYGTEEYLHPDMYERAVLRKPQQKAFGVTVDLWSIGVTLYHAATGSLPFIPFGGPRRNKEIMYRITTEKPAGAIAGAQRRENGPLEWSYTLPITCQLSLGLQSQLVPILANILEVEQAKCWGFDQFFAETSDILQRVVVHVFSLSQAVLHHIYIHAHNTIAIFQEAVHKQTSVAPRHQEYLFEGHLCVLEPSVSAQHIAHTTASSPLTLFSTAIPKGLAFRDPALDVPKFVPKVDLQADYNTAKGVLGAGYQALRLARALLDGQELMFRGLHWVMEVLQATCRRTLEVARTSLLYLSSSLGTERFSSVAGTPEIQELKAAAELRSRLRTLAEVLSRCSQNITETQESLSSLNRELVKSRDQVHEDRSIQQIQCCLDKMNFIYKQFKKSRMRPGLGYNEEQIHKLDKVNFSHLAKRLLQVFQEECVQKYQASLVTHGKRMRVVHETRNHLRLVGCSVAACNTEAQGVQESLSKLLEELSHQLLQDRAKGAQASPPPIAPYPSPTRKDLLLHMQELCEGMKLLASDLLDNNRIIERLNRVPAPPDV
# Experiment: In-vitro IKKε kinase assay ([γ33]ATP filter-plate)
# Assay type: biochemical
# Details: text bins; read-out: IC50 for inhibition of the kinase activity of IKKε
# Procedure, shortened: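 His-tagged Sf9-expressed kinases at 0.1 or 0.02 μg/ml (TBK1) and 0.1 or 0.015 μg/ml (IKKε) for normal and sensitized formats, with myelin basic protein or casein substrate. ATP was at 2×Km (60 μM TBK1, 32 μM IKKε) plus 0.3 μCi [γ33]ATP. Reactions ran 30-45 min, were captured on P-81 filters, and counts were normalized to DMSO.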
row,SMILES,IC50 [nM]
1,"N#Cc1cc(-c2ccnc(Nc3ccc(N4CCOCC4)cc3)n2)ccc1NC(=O)N1CCCCC1 [Example 44, N-[2-cyano-4-(2-{[4-(morpholin-4-yl)phenyl]amino}pyrimidin-4-yl)phenyl]piperidine-1-carboxamide]",50 to 500
2,"N#Cc1cc(-c2ccnc(Nc3ccc(N4CCOCC4)cc3)n2)ccc1NC(=O)N1CCOCC1 [Example 52, N-[2-cyano-4-(2-{[4-(morpholin-4-yl)phenyl]amino}pyrimidin-4-yl)phenyl]morpholin-4-carboxamide]",50 to 500
3,"CCN(CC)CCN(CC)C(=O)Cc1cccc(Nc2nccc(-c3ccc(NC(=O)C(C)C)c(C#N)c3)n2)c1 [compound 424, N-[2-cyano-4-(2-{[3-(2-{[2-(diethylamino)ethyl] (ethyl)amino}-2-oxoethyl)phenyl]amino}pyrimidin-4-yl)phenyl]-2-methylpropanamide]",50 to 500
4,"N#Cc1cc(-c2ccnc(Nc3ccc(N4CCOCC4)cc3)n2)ccc1OCC1CCN(C(=O)C2C[C@H]2F)CC1 (stereo partly drawn) [Example 108, 2-[(1-{[(2R)-2-fluorocyclopropyl]carbonyl}piperidin-4-yl)methoxy]-5-(2-{[4-(morpholin-4-yl)phenyl]amino}pyrimidin-4-yl)benzonitrile]",50 to 500
5,"CC(C)COC(=O)Nc1ccc(-c2ccnc(Nc3ccc(N4CCOCC4)cc3)n2)cc1C#N [Example 180, 2-methylpropyl [2-cyano-4-(2-{[4-(morpholin-4-yl)phenyl]amino}pyrimidin-4-yl)phenyl]carbamate]",50 to 500
6,"COc1cc(NC(=O)C2CCCC2)cc(Nc2nccc(-c3ccc(OC)c(C#N)c3)n2)c1 [compound 362, N-(3-{[4-(3-Cyano-4-methoxyphenyl)pyrimidin-2-yl]amino}-5-methoxyphenyl) cyclopentane-carboxamide]",5 to 50
7,"COc1ccc(Nc2nccc(-c3cc(C#N)cc(OCc4ccccc4)c3)n2)cc1OC [Example 145, 3-(Benzyloxy)-5-{2-[(3,4-dimethoxyphenyl)amino]pyrimidin-4-yl}benzonitrile]",50 to 500
8,"COc1ccc(-c2ccnc(Nc3cc(CN(C)C)c(OC)c(OC)c3)n2)cc1C#N [Example 174, 5-[2-({3-[(Dimethylamino)methyl]-4,5-dimethoxyphenyl}amino)pyrimidin-4-yl]-2-methoxybenzonitrile]",5 to 50
9,COC1CN(C(C)c2ccc(Nc3nccc(-c4ccc(O[C@@H]5CCN(C(=O)CO)C5)c(C#N)c4)n3)cc2)C1 (stereo partly shown) [compound 602],5 to 50
10,"CC(C)(O)C(=O)N1CCC(Oc2ccc(-c3ccnc(Nc4ccc(N5CCOCC5)cc4)n3)cc2C#N)CC1 [Example 74, 2-{[1-(2-Hydroxy-2-methylpropanoyl)piperidin-4-yl]oxy}-5-(2-{[4-(morpholin-4-yl)phenyl]amino}pyrimidin-4-yl)benzonitrile]",50 to 500
11,"CC(=O)N1CCC(COc2ccc(-c3ccnc(Nc4ccc(N5CCOCC5)cc4)n3)cc2C#N)C1 (stereo not shown) [compound 469, 2-[(1-acetylpyrrolidin-3-yl)methoxy]-5-(2-{[4-(morpholin-4-yl)phenyl]amino}pyrimidin-4-yl)benzonitrile]",5 to 50
12,"N#Cc1cc(-c2ccnc(Nc3ccc(N4CCOCC4)cc3)n2)ccc1Cl [Example 102, 2-Chloro-5-(2-{[4-(morpholin-4-yl)phenyl]amino}pyrimidin-4-yl)benzonitrile]",5 to 50

# The remaining lines, values ahead:
row,IC50 [nM],SMILES
1,5 to 50,"CC(=O)Nc1cccc(Nc2nccc(-c3ccc(OCc4ccccc4)c(C#N)c3)n2)c1 [Example 185, N-[3-({4-[4-(Benzyloxy)-3-cyanophenyl]pyrimidin-2-yl}amino)phenyl] acetamide]"
2,5 to 50,"CC(C)(C)C(=O)Nc1ccc(-c2ccnc(Nc3ccc(N4CCOCC4)cc3)n2)cc1C#N [Example 196, N-[2-cyano-4-(2-{[4-(morpholin-4-yl)phenyl]amino}pyrimidin-4-yl)phenyl]-2,2-dimethylpropanamide]"
3,5 to 50,"C[C@H](O)C(=O)N1CCC(Oc2ccc(-c3ccnc(Nc4ccc(N5CCOCC5)cc4)n3)cc2C#N)C1 (stereo partly drawn) [Example 192, 2-({1-[(2S)-2-hydroxypropanoyl]pyrrolidin-3-yl}oxy)-5-(2-{[4-(morpholin-4-yl)phenyl]amino}pyrimidin-4-yl)benzonitrile]"
4,5 to 50,"N#Cc1cc(-c2ccnc(Nc3ccc(N4CCOCC4)cc3)n2)ccc1OCCNC(=O)CO [Example 197, N-{2-[2-cyano-4-(2-{[4-(morpholin-4-yl)phenyl]amino}pyrimidin-4-yl)phenoxy]ethyl}-2-hydroxyacetamide]"
5,< 5,"N#Cc1cc(-c2ccnc(Nc3cccc(N4CCN(CCO)CC4)c3)n2)ccc1O[C@@H]1CCN(C(=O)CO)C1 [compound 604, 2-{[(3R)-1-(Hydroxyacetyl)pyrrolidin-3-yl]oxy}-5-[2-({3-[4-(2-hydroxyethyl)piperazin-1-yl]phenyl}amino)pyrimidin-4-yl]benzonitrile]"
6,< 5,"COc1cc(Nc2nccc(-c3ccc(OCC(C)C)c(C#N)c3)n2)ccc1C(=O)N1CC(OC)C1 [compound 587, 5-[2-({3-Methoxy-4-[(3-methoxyazetidin-1-yl)carbonyl]phenyl}amino)pyrimidin-4-yl]-2-(2-methylpropoxy) benzonitrile]"
7,5 to 50,"CC(=O)N1CCC(Oc2ccc(-c3ccnc(Nc4ccc(N5CCOCC5)cc4)n3)cc2C#N)C1 (stereo not shown) [Example 195, 2-[(1-Acetylpyrrolidin-3-yl)oxy]-5-(2-{[4-(morpholin-4-yl)phenyl]amino}pyrimidin-4-yl)benzonitrile]"
8,< 5,"N#Cc1cc(-c2ccnc(Nc3ccc(CN4CCN(CCO)CC4)cc3)n2)ccc1O[C@@H]1CCN(C(=O)CO)C1 [compound 636, 2-{[(3R)-1-(Hydroxyacetyl)pyrrolidin-3-yl]oxy}-5-{2-[(4-{[4-(2-hydroxyethyl)piperazin-1-yl]methyl}phenyl)amino]pyrimidin-4-yl}benzonitrile]"
9,5 to 50,"N#Cc1cc(-c2ccnc(Nc3ccc(N4CCOCC4)cc3)n2)ccc1NCc1cccnc1 [Example 200, 5-(2-{[4-(Morpholin-4-yl)phenyl]amino}pyrimidin-4-yl)-2-[(pyridin-3-ylmethyl)amino] benzonitrile]"
10,< 5,"N#Cc1cc(-c2ccnc(Nc3cccc(-n4ccnc4)c3)n2)ccc1OC1CCOCC1 [compound 560, 5-(2-{[3-(1H-Imidazol-1-yl)phenyl]amino}pyrimidin-4-yl)-2-(tetrahydro-2H-pyran-4-yloxy)benzonitrile]"
11,5 to 50,"N#Cc1cc(-c2ccnc(Nc3ccc(C#Cc4cccnc4)cc3)n2)ccc1OC1CCOCC1 [compound 605, 5-(2-{[4-(Pyridin-3-ylethynyl)phenyl]amino}pyrimidin-4-yl)-2-(tetrahydro-2H-pyran-4-yloxy)benzonitrile]"
12,< 5,"N#Cc1cc(-c2ccnc(Nc3cccc(Cn4cnnc4)c3)n2)ccc1OC1CCOCC1 [compound 595, 2-(Tetrahydro-2H-pyran-4-yloxy)-5-(2-{[3-(4H-1,2,4-triazol-4-ylmethyl)phenyl]amino}pyrimidin-4-yl)benzonitrile]"
13,< 5,"N#Cc1cc(-c2ccnc(Nc3ccc(CN4CC(O)C4)cc3)n2)ccc1O[C@@H]1CCN(C(=O)CO)C1 [compound 615, 2-{[(3R)-1-(Hydroxyacetyl)pyrrolidin-3-yl]oxy}-5-[2-({4-[(3-hydroxyazetidin-1-yl)methyl]phenyl}amino)pyrimidin-4-yl]benzonitrile]"
